Results taken from US7763708B2, “Methods and compositions for modulating C5-a-mediated inflammatory responses” (Institute for Protein Science Co., Ltd., priority 2004, dated 2010).
Several values for one entry are separate records, joined by “and”; a condition that tells them apart may be missing. Identical values can stand only once. Entries after “also recorded” stand apart in the source; their conditions may differ. Ends that are not written are not given here.

How the values were obtained:
[1] = test system: ICR mice; assay: Lethal shock of mice induced by intravenous CAWS (Candida albicans water soluble extract); format: in vivo, mouse
Description: (§1) Within one exemplary embodiment illustrating construction of useful C5a-modulatory peptide analogs and mimetics from a direct C5a complement peptide (or reference C5a-modulatory peptide sequence), an acetylated derivative of Pep-A (A-Pep-A) was constructed and tested for use within the methods and compositions of the invention. A-Pep-A is a peptide with the same sequence as that of Pep-A with acetylated alanine at the amino-terminal amino acid. Effect of A-Pep-A was tested on the lethal shock of mice induced by intravenous administration of CAWS (Candida albicans water soluble extract). […] ICR mice were injected with 4 mg/kg of A-Pep-A intraperitonally (i.p.) or intravenously (i.v.) 10 min before i.v. challenge with […] 100 μg CAWS. […] Effect of A-Pep-A was also evaluated on the skin reaction of rats. As an indicator dye of vascular exudation, rats were i.v. injected with 0.5 ml of Evans Blue (8 mg/ml in saline) 30 min before intradermal (i.d.) injection of 5 μg 512 (anti-Crry monoclonal antibody) together with Pep-A, A-Pep-A of saline control).

[2] = test system: skin reaction of rats; assay: Skin reaction of rats: Evans Blue exudation after intradermal 5I2 (anti-Crry mAb); format: in vivo, rat
Description: as §1, with “As an indicator dye of vascular exudation, rats were i.v. injected with 0.5 ml of Evans Blue (8 mg/ml in saline) 30 min before intradermal (i.d.) injection of 5 μg 512 (anti-Crry monoclonal antibody) together with Pep-A, A-Pep-A of saline control).” left out

[3] = biological target: T1, C5a (Homo sapiens, UniProt P01031); assay: Intracellular Ca++ mobilization in neutrophils triggered by C5a (calcium imaging); format: cell-based
T1 sequence (P01031 678-751 limits assumed): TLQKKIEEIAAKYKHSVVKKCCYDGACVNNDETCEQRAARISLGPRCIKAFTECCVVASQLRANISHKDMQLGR
Description: Neutrophils were isolated from fresh human blood with 0.2% EDTA as an anticoagulant. Whole blood was collected from a healthy volunteer (a collaborator of this study) via vein puncture. A 2.4 ml aliquot of blood was then layered onto 2 ml Mono-Poly Resolving Medium (Dainihon Seiyaku, Tokyo, Japan) in a centrifuge tube and centrifuged at 400 g for 20 min at room temperature. The polymorphonuclear leukocytes (neutrophils) were then harvested and the cell fraction was washed with Hanks' balanced salt solution (HBSS).
The isolated neutrophils were loaded with 2 μM Fura-2/AM (Molecular Probes, Eugene, Oreg.) mixed with 0.02% Pluronic F-127 (Molecular Probes) and 0.2% DMSO in HBSS for 40 min at 37° C. The suspension was agitated to prevent sedimentation. After loading, the cells were washed with HBSS twice and suspended in HBSS containing 0.3% BSA (HBSS/BSA). Approximately 1×10^6 cells in 900 μl HBSS/BSA were added to a poly-L-lysine-coated 35 mm Petri dish and allowed to attach to the bottom of the dish for 30 min. Changes in intracellular calcium concentrations in response to C5a or a mixture of peptides (C-peptides and C5a) were determined by monitoring the ratio of fluorescence light emission at 5I0 nm as a result of excitation at 340 and 380 nm at 37° C. using an ARGUS HiSCA calcium imaging system (Hamamatsu Photonics, Hamamatsu, Japan). The mixture of peptides and C5a was incubated in an Eppendorf tube on ice for 30 min in the HBSS solution and then applied to the cells after a 2 min baseline recording.
The effect of C-peptides on C5a function was analyzed by measuring Ca^++ mobilization using an ARUGUS HiSCA calcium imaging system. Administration of 0.7 nM recombinant human C5a (RhC5a) induced a transient increase in the level of intracellular Ca^++ of human neutrophils (FIG. 3a). The level of this activation was about 50% of the maximum achieved with higher concentrations of C5a. A mixture of C-peptide and C5a was incubated in an Eppendorf tube on ice for 30 min in the HBSS solution and then applied to the cells. […]

[4] = test system: TGW human neuroblastoma cells bearing C5aR; assay: Patch clamp measurement of inward ion current pulses induced by PL37-MAP; format: cell-based; conditions: 500 nM PL37-MAP
Description: The measurements were carried out on TGW human neuroblastoma cells bearing C5aR. Cells were voltage-clamped at room temperature at a holding potential of −70 mV using a whole cell clamp configuration. The instruments used for electrophysiology were as follows: an Axopatch 200-A patch clamp amplifier, a Digidata-1200 data acquisition system and pCLAMP 6.02 software from Axon Instruments Inc., (Foster City, Calif.). The head stage of the amplifier was fitted to an MHW-3 hydraulic manipulator manufactured by Narishige Inc. (Tokyo, Japan); and the cells were visualized using an Olympus IMT-2 invert microscope. Data acquisition and analysis were performed using an IBM compatible personal computer. Patch electrodes (OD=1.5 mm, thin wall, Garner Glass Co., Claremont, Calif.) were pulled with a PP-83 puller and polished with an MF-83 microforge (Narishige Inc). The resistance of patch electrodes was 8-10 MΩ. The solutions used were as follows: an extracellular solution (10 mM Hepes, 140 mM NaCl, 5 mM KCI, 2 mM CaCl2, 2 mM MgCl2, 10 mM glucose, pH=7.34) and an intracellular pipette solution (10 mM Hepes, 110 mM KCl, 15 mM NaCl, 0.1 mM CaCl2, 2 mM MgCl2, 1 mM EGTA, pH 7.25). […]
Inward calcium current pulses detected by a patch clamp assay were evoked when TGW cells were exposed to 500 nM PL37-MAP (FIG. 2a). […]

[5] = biological target: T1, C5a; assay: Surface plasmon resonance (Biacore) binding of C-peptides to immobilized C5a; parameters: Complement anaphylatoxin C5a is a 74-amino acid peptide generated from the fifth component of complement (C5); conditions: PBS, 25° C., 10 μl/min, EA-blocked cell subtracted
Description: (§2) Binding interactions between PL37 or C5a with C-peptides were evaluated using surface plasmon resonance (SPR) technology with the Biacore system. PL37 and C5a were covalently immobilized on the CM5 sensor chip by amine coupling methods using N-ethyl-N-(dimethylaminopropyl)carbodiimide/N-hydroxysuccinimide (EDC/NHS) according to the manufacturer's instructions. We activated the surface of the CM5 sensor chip with EDC/NHS for 20 min before injection with PL37-MAP (200 μg/ml in 10 mM sodium carbonate buffer, pH 8.5, over flow cell 2) or C5a (100 μg/ml in 10 mM acetate buffer, pH 5, over flow cell 3). Afterwards, excess NHS was deactivated for 20 min with 1 M ethanolamine hydrochloride (EA), pH 8.5. The reference flow cell was activated with EDC/NHS, and blocked with EA. Coupling was performed at a flow rate of 5 μl/min at 25° C. in PBS. Analyte (30 μl of C-peptide A or B) was injected at 10 μl/min at 25° C. in PBS. Binding interactions were determined by passing samples simultaneously over both the EA-blocked cell and the flow cell with immobilized PL37 or C5a so as to obtain units of resonance response (RU) by subtraction of the background using Biacore software (BIA evaluation).
Binding of C-peptides to C5a was also examined. C5a was covalently coupled to a CM5 sensor chip resulting in a net increase of 5,770 RU. […]

[6] = biological target: PL37-MAP (Homo sapiens, UniProt P01031); assay: Surface plasmon resonance (Biacore) binding of C-peptides to immobilized PL37-MAP; conditions: PBS, 25° C., 10 μl/min, EA-blocked cell subtracted
Description: as §2
The Biacore instrument which uses SPR technology measures association and dissociation in real time of an unlabeled analyte with an immobilized ligand. […]

[7] = test system: Rat Lethal Shock Model (C5a-mediated); assay: Rat lethal shock induced by anti-Crry antibody following LPS priming; format: in vivo
Description: Administration of anti-rat Crry mAb (5I2) (Takizawa et al., J. Immunol. 152:3032, 1994) induces lethal shock in rats primed with a trace amount of lipopolysaccharide (LPS) (Matsuo et al., J. Exp. Med. 180:1619, 1994; Mizuno et al., J. Immunol. 162:5477, 1999). With this model, all rats sensitized with 0.05 mg/kg of LPS died within 30 min of injection of mAb 512. Male Wistar rats weighing about 250 g were purchased from Chubu Kagaku Shizai (Nagoya, Japan) and were allowed free access to food and water. Each rat was injected with 0.05 mg/kg of LPS, prepared from a phenol extraction of Salmonella typhosa (Sigma Chemical Co., St. Louis, Mo.) in 250 μl saline. Then, 0.75 mg/kg of 5I2 was administered 20 h later. Ten minutes before the injection of 5I2, saline or C-peptides in saline were injected. All injections were intravenously administered through the tail vein. Animal experiments were carried out according to Nagoya City University Guideline for the Care and Use of Experimental Animals and approved by the Nagoya City University Graduate School of Medical Sciences Animal Care Committee.
Administration of 0.75 mg/kg anti-rat Crry monoclonal antibody (Takizawa et al., J. Immunol. 152:3032, 1994) induces rapid lethal shock in rats primed with 0.05 mg/kg of LPS 20 h earlier (Matsuo et al., J. Exp. Med. 180:1619, 1994; Mizuno et al., J. Immunol. 162:5477, 1999). […] In order to investigate the inhibitory effect of the C-peptides in this model, we injected rats with saline (for the control) or C-peptides in 250 μl of saline 10 min before the 5I2 injection. All rats injected with saline died within 30 min (Table 1). However, all rats injected with 4 mg/kg of Pep-A survived. […] Some of the surviving rats stopped breathing briefly in the first 1 or 2 min after injection of 5I2, but were soon breathing again and about 20-40 min later began moving.

[8] = 4 mg/kg i.v. 10 min before anti-Crry mAb

In the case of “A-Pep-A: Peptide with the same sequence as Pep-A with acetylated alanine at the amino-terminal amino acid (Ac-ASGAPAPGPAGPLRPMF)”, the Dead/total ([1]; 4 mg/kg i.p., CAWS 100 μg/mouse) is reported as 3/3, the Dead/total ([1]; 4 mg/kg i.p., CAWS 200 μg/mouse) is reported as 3/3 and the Dead/total ([1]; 4 mg/kg i.v., CAWS 100 μg/mouse) is reported as “rescued half of mice”. For the same substance, the Dead/total ([1]; 4 mg/kg i.v., CAWS 100 μg/mouse, listed as A-PepA) was 2/4, the Dead/total ([1]; 4 mg/kg i.v., CAWS 200 μg/mouse) was 3/3 and the “Blue spots at 2 h” value ([2]; 5I2 2.5 μg + peptide 40 μg i.d., spots measured from reverse side of removed skin) was 3 +/− 1. For the same substance, the “Inhibition of dye exudation / skin inflammation” value ([2]; summary of Table 3) was “suppressed the dye exudation” and the “Inhibition of C5a-triggered Ca++ mobilization” value ([3]; 1 nM C5a, 350 nM peptide, human neutrophils (FIG. 5)) was “completely inhibited; also recorded: much stronger effect than Pep-A”.
“PL37-MAP: PL37 (C5a fragment aa 37-53, RAARISLGPRCIKAFTE, SEQ ID NO: 2) in multiple antigenic peptide form (also: multiple antigenic peptide form on lysine core) [reference compound]” was tested, and the “Amplitude of induced inward current pulses” value [4] was 500 pA.
For ASTAPARAGLPRLPKFF [Pep-B], the “Inhibition of inward ion current pulse evoked by PL37-MAP” value ([4]; 50 μM C-peptide) was “did not have any effect; also recorded: did not block”, the “Binding to C5a-coupled flow cell” value [5] was “did not” and the “Binding to PL37-MAP-coupled flow cell” value [6] was “did not”. For the same substance, the “Survival rate (%)” value [7, 8] was 0%, the “Surviving/total number of rats” value [7, 8] was “died and 0/4” and the “Inhibition of C5a-triggered Ca++ mobilization” value ([3]; 0.7 nM C5a, 70 nM C-peptide, human neutrophils) was “failed to cause inhibition; also recorded: no inhibition”. The “Inhibition of C5a-triggered Ca++ mobilization” value ([3]; 0.7 nM C5a, 700 nM C-peptide, human neutrophils) was “failed to cause inhibition; also recorded: no inhibition”.
For “ASGAPAPGPAGPLRPMF [Pep-A, ASGAPAPGPAGPLRPMF]”, the “Time in which peptide had been degraded in vivo” value ([7]; rat, inferred from loss of effect at 30 min pre-dosing) was no more than 30 min and the “Harmful / side effects of the peptide in rats” value ([7]; rats injected with Pep-A (LPS sensitized, without anti-Crry mAb)) was “survived with no harmful effect; also recorded: without any noticeable deleterious side effects”.
